Experimental data taken from US20240336588A1, “COMPOSITIONS AND METHODS FOR ANTIOXIDANT AND ANTI-INFLAMMATORY THERAPEUTICS” (AVANTI BIOSCIENCES INC., priority 2021, published 2024).
Like-named read-outs stand apart in the source and are kept apart here. Blank lines part the entries; values can stand above or below the compound they belong to.

Columns and labels:
[1] = target: DYRK1A (HT-497, 6×His tagged rat truncated DYRK1A isoform X1 residues 1-497) (Rattus norvegicus (Rat), UniProt Q63470); experiment: DYRK1A ELISA assay (HT-PRD phosphorylation); assay type: biochemical; conditions: 100 µM ATP, 5 ng HT-497, 30 min at 30° C.
Experimental: Compounds of Table 1, above, were examined in vitro for activity against DYRK1A, DYRK1B, DYRK2 via an ELISA assay.
(§1) DYRK1A assay. […] After blocking, wells were washed extensively with dilution buffer before subjecting to phosphorylation. […] At the end point, wells were washed with ˜350 μl dilution buffer three times to terminate the reaction. […] Each point was run in quadruplicate with DMSO present in all assays at 0.2% final concentration. […] HT-PRD phosphorylation was subsequently determined by the sandwich antibody staining protocol, first with 100 μl mouse mAb 3D3 specific for detecting DYRK1A-phosphorylated PRD (60 min at room temperature) then with 100 μl alkaline phosphatase (AP)-linked anti-mouse secondary antibody (60 min at room temperature), followed by colorimetric reaction with 100 μl PNPP solution (PNPP substrate tablet, Thermo Fisher). […] The readings were then recorded for subsequent IC50 calculation. The DYRK1A assay protocol can also support DYRK1B and DYRK2 phosphorylation reactions in the enzyme concentration-dependent manner; therefore, the method was adapted for measuring the activity of candidate compounds against DYRK1B and DYRK2. For DYRK2, the reactions were performed as described above with 6 ng HT-DYRK2 (6×His tagged full-length human DYRK2 isoform 1). For DYRK1B, the assays were also similarly conducted but with 70 ng GST-DYRK1B (glutathione S-transferase tagged full length human DYRK1B isoform p65) and an extended kinase reaction time of 60 min.
Dilution factors for both mAb 3D3 and secondary antibody were pre-determined for each batch of antibody to ensure that neither antibody was limiting in the assay.
(§2) Data transformation, calculation, plotting, curve fitting, and IC 50 calculation were performed in KaleidaGraph (http://www.synergy.com/wordpress_650164087; Mac version 4.1). Data was corrected for background (readings from wells with only PNPP) before subsequent manipulations. […] The resulting residual activity was then plotted against its corresponding inhibitor concentrations in semi-log graph and the plot was fit to the sigmoidal equation, y=a+(b−a)/(1+(x/c)^d), for IC50 calculation.

[2] = target: DYRK1B (GST tagged full length human DYRK1B isoform p65) (Homo sapiens (Human), UniProt Q9Y463); experiment: DYRK1B ELISA assay; assay type: biochemical; conditions: 70 ng GST-DYRK1B, kinase reaction time 60 min
Experimental: as §1, §2
Compounds of Table 1, above, were examined in vitro for activity against DYRK1B, via an ELISA assay.

[3] = system: 12 transporter proteins including BCRP and PgP; experiment: Transporter substrate test (Eurofins panels); assay type: in vitro ADME
in vivo [4] = conditions: male, C57BL/6, mouse
COX2 = COX2 (Homo sapiens (Human), UniProt P35354); experiment: Eurofins safetyscreen87 panel; assay type: biochemical
[5] = system: lipopolysaccharide (LPS)-induced TNF-α model; experiment: Lipopolysaccharide (LPS)-induced TNF-α model; assay type: in vivo, C57BL/6 mice; conditions: intranasally 3, 10, 30 mg/kg and orally 30 mg/kg, 5 days
Experimental: 12-week-old male C57BL/6 mice were used.
On day 5, one hour after LPS treatment, all animals were euthanized via CO2. The plasma, hippocampus and cortex were collected and immediately stored at liquid nitrogen and transferred to −80° C. Tissues were used for ELISA and Western Blot analysis to determine levels of TNF-α and pTau.

PDE3A = PDE3A (Homo sapiens (Human), UniProt Q14432); experiment: Eurofins safetyscreen87 panel; assay type: biochemical
[6] = mouse, in vivo
8 major CYP enzymes = experiment: CYP inhibition in human liver microsomes; assay type: in vitro ADME; conditions: c=10 μM
Experimental: Compound 68 was also tested for its inhibitor activity against the 8 major CYP enzymes in human liver microsomes.

[7] = system: Salmonella typhimurium (TA98, TA100, TA97a, and TA1535); experiment: mini-Ames assay; conditions: 5 concentrations up to 100 μM, absence or presence of rat liver S9
Experimental: The compound dissolved in DMSO was evaluated at 5 concentrations up to […] in the absence or presence of metabolic activation (rat liver S9).

87 different targets = experiment: Eurofins safetyscreen87 panel (whole panel)
Potassium channel hERG = Potassium channel hERG (Homo sapiens (Human), UniProt Q12809); experiment: Eurofins safetyscreen87 panel; assay type: binding; conditions: c=10 μM
COX1 = COX1 (Homo sapiens (Human), UniProt P23219); experiment: Eurofins safetyscreen87 panel; assay type: biochemical
[8] = male, C57BL/6, mouse, in vivo
in vivo [9] = conditions: male, C57BL/6, mouse; remark: listed apart in the source
[10] = system: MOG35-55-induced chronic progressive Experimental Autoimmune Encephalomyelitis (EAE); experiment: MOG35-55-induced murine model of chronic progressive EAE; assay type: in vivo, mice; conditions: for activity in the EAE model (reference compounds): reference compound
From the text: Compound 40 of Table 1 was examined for application in neurodegenerative disorders using a MOG35-55-induced murine model of chronic progressive Experimental Autoimmune Encephalomyelitis (EAE), an inflammation model predictive for multiple sclerosis (MS).
Without being bound by theory, the present inventors note that compound 40 could have a peripheral immunomodulation effect and an overall neuroprotective effect, which could have advantageous implications for the treatment of neurodegenerative disorders like Alzheimer's disease and Multiple Sclerosis.

DYRK2 = DYRK2 (Homo sapiens (Human), UniProt Q92630); conditions: literature value; cited from earlier work
[11] = inhaled or intranasal, 30 mg/kg
[12] = inhaled or intranasal, 10 mg/kg
[13] = twice daily intranasal administration, 15 mg/kg

Chain of DYRK1B (GST tagged full length human DYRK1B isoform p65) (Q9Y463 other isoform, or with tags, fused parts or gaps): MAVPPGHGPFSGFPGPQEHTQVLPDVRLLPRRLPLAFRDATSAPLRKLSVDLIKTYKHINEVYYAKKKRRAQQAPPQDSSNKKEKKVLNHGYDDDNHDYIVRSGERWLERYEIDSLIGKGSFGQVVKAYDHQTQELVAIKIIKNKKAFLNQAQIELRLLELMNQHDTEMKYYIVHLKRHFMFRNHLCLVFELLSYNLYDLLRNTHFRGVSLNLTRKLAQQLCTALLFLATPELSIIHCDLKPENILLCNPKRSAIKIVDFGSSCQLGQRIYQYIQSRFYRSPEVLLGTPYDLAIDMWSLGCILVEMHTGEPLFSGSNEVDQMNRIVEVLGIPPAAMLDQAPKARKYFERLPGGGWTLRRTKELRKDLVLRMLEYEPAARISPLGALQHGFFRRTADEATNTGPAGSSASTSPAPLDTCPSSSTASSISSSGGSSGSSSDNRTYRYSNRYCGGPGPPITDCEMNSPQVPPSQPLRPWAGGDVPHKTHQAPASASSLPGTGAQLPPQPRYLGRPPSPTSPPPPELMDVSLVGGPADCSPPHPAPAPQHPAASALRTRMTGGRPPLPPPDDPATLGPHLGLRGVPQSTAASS
Chain of PDE3A (Q14432 whole entry): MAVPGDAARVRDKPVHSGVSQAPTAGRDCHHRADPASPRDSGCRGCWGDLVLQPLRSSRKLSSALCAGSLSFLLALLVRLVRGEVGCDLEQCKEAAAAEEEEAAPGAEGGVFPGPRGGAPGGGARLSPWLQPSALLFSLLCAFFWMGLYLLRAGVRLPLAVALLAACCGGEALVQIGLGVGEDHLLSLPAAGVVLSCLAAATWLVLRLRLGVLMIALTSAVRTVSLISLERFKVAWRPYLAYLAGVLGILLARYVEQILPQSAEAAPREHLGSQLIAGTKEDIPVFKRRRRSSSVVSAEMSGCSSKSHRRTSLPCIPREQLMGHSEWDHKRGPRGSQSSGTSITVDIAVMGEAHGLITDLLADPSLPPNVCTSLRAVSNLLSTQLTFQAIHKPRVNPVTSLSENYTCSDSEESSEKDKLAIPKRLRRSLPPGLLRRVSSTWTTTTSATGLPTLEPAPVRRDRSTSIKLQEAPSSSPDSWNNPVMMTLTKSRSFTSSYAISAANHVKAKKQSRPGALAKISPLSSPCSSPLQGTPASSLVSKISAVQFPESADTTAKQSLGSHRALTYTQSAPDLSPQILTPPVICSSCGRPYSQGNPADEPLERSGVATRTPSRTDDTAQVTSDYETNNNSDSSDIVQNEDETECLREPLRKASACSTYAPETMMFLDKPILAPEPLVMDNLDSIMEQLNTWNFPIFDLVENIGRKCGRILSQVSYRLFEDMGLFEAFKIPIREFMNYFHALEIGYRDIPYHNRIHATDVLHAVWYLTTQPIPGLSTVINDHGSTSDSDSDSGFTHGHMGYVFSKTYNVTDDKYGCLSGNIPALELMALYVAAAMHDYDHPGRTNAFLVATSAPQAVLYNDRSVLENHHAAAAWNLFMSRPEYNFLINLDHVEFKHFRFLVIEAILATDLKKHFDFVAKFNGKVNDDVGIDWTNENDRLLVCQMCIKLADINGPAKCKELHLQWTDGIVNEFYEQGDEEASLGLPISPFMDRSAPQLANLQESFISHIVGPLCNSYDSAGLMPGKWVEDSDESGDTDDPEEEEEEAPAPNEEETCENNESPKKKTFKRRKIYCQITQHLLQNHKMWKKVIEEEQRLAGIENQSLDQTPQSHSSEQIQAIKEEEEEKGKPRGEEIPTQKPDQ
Chain of Potassium channel hERG (Q12809 whole entry): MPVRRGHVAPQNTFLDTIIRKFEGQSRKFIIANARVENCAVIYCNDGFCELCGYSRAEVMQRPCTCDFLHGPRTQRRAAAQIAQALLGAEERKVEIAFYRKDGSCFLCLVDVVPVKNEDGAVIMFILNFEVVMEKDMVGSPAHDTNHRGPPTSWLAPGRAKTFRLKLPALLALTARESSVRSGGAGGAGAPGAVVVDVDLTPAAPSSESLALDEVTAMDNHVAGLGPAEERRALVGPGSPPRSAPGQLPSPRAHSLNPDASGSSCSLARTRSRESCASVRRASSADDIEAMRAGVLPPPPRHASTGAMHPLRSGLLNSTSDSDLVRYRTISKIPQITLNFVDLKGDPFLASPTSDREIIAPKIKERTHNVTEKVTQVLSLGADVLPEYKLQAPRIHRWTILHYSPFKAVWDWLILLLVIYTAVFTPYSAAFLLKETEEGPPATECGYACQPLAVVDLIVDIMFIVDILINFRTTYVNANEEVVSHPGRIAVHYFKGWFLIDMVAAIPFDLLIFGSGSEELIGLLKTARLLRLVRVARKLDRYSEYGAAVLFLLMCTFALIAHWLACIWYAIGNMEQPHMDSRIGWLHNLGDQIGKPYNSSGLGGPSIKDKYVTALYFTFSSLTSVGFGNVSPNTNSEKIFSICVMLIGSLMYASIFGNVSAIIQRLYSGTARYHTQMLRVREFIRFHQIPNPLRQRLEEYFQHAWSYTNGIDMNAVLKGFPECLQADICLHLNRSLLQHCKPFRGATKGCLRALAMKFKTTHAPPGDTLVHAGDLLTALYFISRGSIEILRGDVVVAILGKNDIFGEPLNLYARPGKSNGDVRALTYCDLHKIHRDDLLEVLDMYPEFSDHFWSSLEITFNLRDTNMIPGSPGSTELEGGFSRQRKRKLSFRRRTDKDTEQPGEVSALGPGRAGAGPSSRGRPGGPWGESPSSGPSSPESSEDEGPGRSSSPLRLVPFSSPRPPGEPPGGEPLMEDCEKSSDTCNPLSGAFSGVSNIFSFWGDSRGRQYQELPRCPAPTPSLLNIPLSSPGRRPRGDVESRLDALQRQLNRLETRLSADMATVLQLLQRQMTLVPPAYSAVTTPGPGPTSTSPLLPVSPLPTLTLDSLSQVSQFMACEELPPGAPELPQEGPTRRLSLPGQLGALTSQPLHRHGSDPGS
Chain of COX2 (P35354 18-604): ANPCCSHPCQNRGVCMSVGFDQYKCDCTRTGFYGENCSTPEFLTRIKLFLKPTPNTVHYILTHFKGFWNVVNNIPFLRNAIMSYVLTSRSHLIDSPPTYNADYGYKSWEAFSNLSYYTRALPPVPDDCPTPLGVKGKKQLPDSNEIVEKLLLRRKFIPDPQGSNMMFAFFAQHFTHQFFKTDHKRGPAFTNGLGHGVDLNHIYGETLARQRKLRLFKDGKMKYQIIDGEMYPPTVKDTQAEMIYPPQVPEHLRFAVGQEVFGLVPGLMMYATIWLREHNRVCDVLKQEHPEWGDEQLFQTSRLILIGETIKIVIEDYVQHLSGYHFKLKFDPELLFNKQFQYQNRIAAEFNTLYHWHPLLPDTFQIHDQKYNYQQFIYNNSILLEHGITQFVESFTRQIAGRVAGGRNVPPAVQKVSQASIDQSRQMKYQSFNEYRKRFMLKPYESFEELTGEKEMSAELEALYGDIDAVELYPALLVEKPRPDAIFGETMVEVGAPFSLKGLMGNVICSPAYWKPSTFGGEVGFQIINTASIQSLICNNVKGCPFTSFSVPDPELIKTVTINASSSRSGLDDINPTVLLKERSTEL
Chain of COX1 (P23219 24-599): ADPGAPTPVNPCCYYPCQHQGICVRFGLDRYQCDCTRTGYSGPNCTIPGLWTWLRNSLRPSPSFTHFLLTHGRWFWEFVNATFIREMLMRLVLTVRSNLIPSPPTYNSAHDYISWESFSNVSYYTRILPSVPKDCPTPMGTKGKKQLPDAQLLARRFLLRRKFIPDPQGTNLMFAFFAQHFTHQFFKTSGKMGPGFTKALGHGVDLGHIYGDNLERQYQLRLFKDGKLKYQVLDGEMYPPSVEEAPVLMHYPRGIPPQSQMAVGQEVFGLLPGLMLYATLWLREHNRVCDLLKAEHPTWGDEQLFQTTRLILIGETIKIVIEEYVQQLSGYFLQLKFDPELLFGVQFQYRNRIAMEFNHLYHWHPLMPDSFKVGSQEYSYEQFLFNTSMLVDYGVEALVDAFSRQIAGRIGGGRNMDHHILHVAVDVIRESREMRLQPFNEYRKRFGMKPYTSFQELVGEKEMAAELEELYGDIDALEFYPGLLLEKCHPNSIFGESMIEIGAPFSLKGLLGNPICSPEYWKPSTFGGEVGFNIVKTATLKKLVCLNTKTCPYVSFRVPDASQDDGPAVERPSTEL
Chain of DYRK2 (Q92630 whole entry, species assumed): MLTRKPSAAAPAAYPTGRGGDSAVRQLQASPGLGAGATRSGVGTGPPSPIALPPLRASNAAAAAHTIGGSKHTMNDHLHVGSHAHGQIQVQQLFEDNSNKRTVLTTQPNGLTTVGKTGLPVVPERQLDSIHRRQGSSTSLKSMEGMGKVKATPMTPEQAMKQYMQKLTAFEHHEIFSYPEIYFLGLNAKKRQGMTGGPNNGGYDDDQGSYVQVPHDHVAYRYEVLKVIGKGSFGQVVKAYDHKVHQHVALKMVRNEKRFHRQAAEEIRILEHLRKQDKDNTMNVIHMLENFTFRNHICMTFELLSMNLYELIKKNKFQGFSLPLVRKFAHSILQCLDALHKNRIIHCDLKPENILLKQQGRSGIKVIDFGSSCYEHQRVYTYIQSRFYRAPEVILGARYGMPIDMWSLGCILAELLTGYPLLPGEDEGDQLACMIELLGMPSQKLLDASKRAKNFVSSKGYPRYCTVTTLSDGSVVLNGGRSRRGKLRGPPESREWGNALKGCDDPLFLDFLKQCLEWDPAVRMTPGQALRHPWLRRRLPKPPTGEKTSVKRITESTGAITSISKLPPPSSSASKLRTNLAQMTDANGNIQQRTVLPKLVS

- IC50 [1]: < 100 nM
- IC50 [2]: < 100 nM
Compound: O=C(O[C@@H]1Cc2c(O)cc(O)cc2O[C@H]1c1cc(O)c(O)c(O)c1)c1c(F)c(O)c(O)c(O)c1F [Compound 51, (2S,3R)-5,7-dihydroxy-2-(3,4,5-trihydroxyphenyl)chroman-3-yl 2,6-difluoro-3,4,5-trihydroxybenzoate]

Compound: COc1cc(C(=O)O[C@@H]2Cc3c(O)cc(O)cc3O[C@H]2c2cc(O)c(O)c(O)c2)c(F)c(O)c1O [Compound 68, (2S,3R)-5,7-dihydroxy-2-(3,4,5-trihydroxyphenyl)chroman-3-yl 2-fluoro-3,4-dihydroxy-5-methoxybenzoate]
- substrate of transporter proteins [3]: not a substrate of any of them
- concentration at 1 h (in vivo [4]): 120 ng/g
- IC50 (COX2): 182 nM
- lipopolysaccharide-induced expression of TNF-alpha ([5]; hippocampus and plasma, ELISA, FIGS. 3-4): inhibit
- lipopolysaccharide-induced pTau ([5]; hippocampus, Western Blot (AT8 antibody), FIG. 5): inhibit
- IC50 (PDE3A): 380 nM
- T1/2 ([6]; inhaled or intranasal): 1.06 H
- T1/2 [6, 11]: 1.97 H
- T1/2 ([6]; iv, 5 mg/kg): 1.04 H
- T1/2 ([6]; po, 30 mg/kg): 1.27 H
- inhibition of the CYP enzymes (8 major CYP enzymes): no inhibition
- IC50 [1]: < 100 nM
- cytotoxicity in bacteria [7]: No evidence of cytotoxicity
- mutagenicity [7]: not mutagenic
- IC50 [2]: < 100 nM
- activity against other ion channels (87 different targets; c=10 μM): No activity
- profile over 87 different targets (87 different targets; screened at c=10 µM, significant activity only against COX1, COX2, PDE3A): very clean profile
- activity against the Potassium channel hERG (Potassium channel hERG): No activity
- IC50 (COX1): 1200 nM
- time measurable in whole-brain homogenate after dosing [8]: 4 h
- CL/F (in vivo [9]; 30 mg/kg): 842 mL/min/kg
- Vd/F (in vivo [9]; 30 mg/kg): 17.1 L/kg
- AUC(0-inf) (in vivo [9]; [12]): 716 ng·h/mL
- AUC(0-t) (in vivo [9]; [12]): 702 ng·h/mL
- CL/F (in vivo [9]; [12]): 240 mL/min/kg
- Cmax (in vivo [9]; [12]): 489 ng/mL
- Vd/F (in vivo [9]; [12]): 41.7 L/kg
- bioavailability (in vivo [9]; [12]): > 100%
- AUC(0-inf) (in vivo [9]; [11]): 4990 ng·h/mL
- AUC(0-t) (in vivo [9]; [11]): 4950 ng·h/mL
- Cmax (in vivo [9]; [11]): 3140 ng/mL
- bioavailability (in vivo [9]; [11]): > 100%
- AUC(0-inf) (in vivo [9]; iv, 5 mg/kg): 348 ng·h/mL
- AUC(0-t) (in vivo [9]; iv, 5 mg/kg): 334 ng·h/mL
- Cmax (in vivo [9]; iv, 5 mg/kg): 257 ng/mL
- Vd (in vivo [9]; iv, 5 mg/kg): 22 L/kg
- clearance (in vivo [9]; iv, 5 mg/kg): 240 mL/min/kg
- AUC(0-inf) (in vivo [9]; po, 30 mg/kg): 92 ng·h/mL
- AUC(0-t) (in vivo [9]; po, 30 mg/kg): 78 ng·h/mL
- CL/F (in vivo [9]; po, 30 mg/kg): 100 mL/min/kg
- Cmax (in vivo [9]; po, 30 mg/kg): 41 ng/mL
- Vd/F (in vivo [9]; po, 30 mg/kg): 602 L/kg
- bioavailability (in vivo [9]; po, 30 mg/kg): 4%

Compound: O=C(O[C@@H]1Cc2c(O)cc(O)cc2O[C@@H]1c1cc(O)c(O)c(O)c1)c1cc(O)c(O)c(O)c1 [Compound 3, (2R,3R)-5,7-dihydroxy-2-(3,4,5-trihydroxyphenyl)chroman-3-yl 3,4,5-trihydroxybenzoate, reference compound]
- activity in the EAE model (reference compounds) ([10]; FIG. 1): no significant activity

Compound: CCCCCCCCc1ccc(CCC(N)(CO)CO)cc1 [FTY720, Fingolimod, reference compound]
- activity in the EAE model (reference compounds) ([10]; FIG. 1): reversal of the disease

- IC50 [1]: < 100 nM
- IC50 [2]: > 100 nM
Compound: O=C(O[C@@H]1Cc2c(O)cc(O)cc2O[C@H]1c1ccc(O)c(O)c1)c1cc(O)c(O)c(O)c1F [Compound 55, (2S,3R)-2-(3,4-dihydroxyphenyl)-5,7-dihydroxychroman-3-yl 2-fluoro-3,4,5-trihydroxybenzoate]

Compound: COc1cc(N2CCN(C)CC2)ccc1Nc1nccc(-c2cn(C)c3cnccc23)n1 [AZ-191]
- IC50 (DYRK2): 1890 nM

- IC50 [1]: < 100 nM
- IC50 [2]: < 100 nM
Compound: O=C(O[C@@H]1Cc2c(O)cc(O)cc2O[C@H]1c1cc(O)c(O)c(O)c1)c1cc(O)c(O)c(O)c1F [Compound 40, (2S,3R)-5,7-dihydroxy-2-(3,4,5-trihydroxyphenyl)chroman-3-yl 2-fluoro-3,4,5-trihydroxybenzoate]
- axons and myelin during chronic EAE ([10]; Bielschowsky silver staining (neurofilaments), LFB staining (myelin)): preserved axons and myelin
- spinal cord inflammation, hematoxylin and eosin staining ([10]; compared to the vehicle control group): significant spinal cord inflammation reductions
- lesion severity scores, histopathology of spinal cord section ([10]; treated intranasally, compared to the other treatment groups, FIG. 2): significant (p<0.001) reductions in lesion severity scores
- reduction of brain IFNγ [10, 13]: 90%
- reduction of brain IL-17 [10, 13]: 79%
- effect on disease course (EAE) ([10]; twice daily intranasal administration, 15 mg/kg, FIG. 1): reversal of the disease

- IC50 [1]: < 100 nM
Compound: O=C(O[C@@H]1Cc2c(O)cc(O)cc2O[C@H]1c1cc(O)c(O)c(O)c1F)c1cc(O)c(O)c(O)c1F [Compound 47, (2S,3R)-2-(2-fluoro-3,4,5-trihydroxyphenyl)-5,7-dihydroxychroman-3-yl 2-fluoro-3,4,5-trihydroxybenzoate]

- IC50 [1]: > 1000 nM
Compound: O=C(O[C@@H]1Cc2ccccc2C[C@H]1c1cc(O)c(O)c(O)c1)c1cc(O)c(O)c(O)c1 [Compound 53, (2R,3S)-3-(3,4,5-trihydroxyphenyl)-1,2,3,4-tetrahydronaphthalen-2-yl 3,4,5-trihydroxybenzoate]
